Test results as given in patent US7977082B2, “Isomaltulose synthases, polynucleotides encoding them and uses therefor” (The University of Queensland of St. Lucia, priority 2001, dated 2011).

What was measured:
[1] = molecular target: T1, Pantoea dispersa 68J sucrose isomerase (SI), mature, SEQ ID NO: 10, carboxy-terminal 6×His tag (SEQ ID NO: 52) (Pantoea dispersa, UniProt Q6XNK6); assay: Sucrose isomerase kinetics, purified SI from P. dispersa 68J (isomaltulose production), with or without glucose/fructose; assay type: biochemical; conditions: glucose vs fructose, 0.277 M, various sucrose concentrations
T1 sequence (Q6XNK6 34-598): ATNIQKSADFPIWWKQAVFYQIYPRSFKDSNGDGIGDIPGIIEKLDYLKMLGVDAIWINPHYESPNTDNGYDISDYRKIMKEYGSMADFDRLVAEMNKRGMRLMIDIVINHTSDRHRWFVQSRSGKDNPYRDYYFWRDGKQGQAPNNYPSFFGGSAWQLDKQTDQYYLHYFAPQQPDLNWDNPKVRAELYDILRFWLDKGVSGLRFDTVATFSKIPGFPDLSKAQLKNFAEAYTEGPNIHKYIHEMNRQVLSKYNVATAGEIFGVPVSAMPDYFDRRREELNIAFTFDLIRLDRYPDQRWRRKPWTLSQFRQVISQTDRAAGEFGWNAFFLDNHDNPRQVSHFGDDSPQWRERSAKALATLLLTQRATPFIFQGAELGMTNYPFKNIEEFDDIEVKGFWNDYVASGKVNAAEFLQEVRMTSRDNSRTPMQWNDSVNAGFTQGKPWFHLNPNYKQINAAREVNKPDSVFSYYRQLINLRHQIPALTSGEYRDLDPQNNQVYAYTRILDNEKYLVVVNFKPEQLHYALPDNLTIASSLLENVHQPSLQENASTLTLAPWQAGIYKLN
Description: (§1) The pET24b vector introduces a carboxy-terminal 6×His tag (SEQ ID NO: 52) on expressed proteins, which were purified by adsorption to Ni-NTA agarose (Qiagen) and elution with 25 mM NaH2PO4, 150 mM NaCl, 125 mM imidazole buffer (pH8.0) following the manufacturer's instructions. For storage, the eluted solution was diluted with 50% glycerol. The purity of SI proteins was tested by SDS-PAGE as described below. A batch procedure using Ni-NTA agarose in suspension yielded predominantly (80-95%) SI with a background of several other protein bands. A procedure using Ni-NTA agarose in adsorption columns yielded preparations containing a single protein band. Unless otherwise specified, this is the form of the purified SI enzymes used for biochemical characterisation.
(§2) Enzyme activities were measured by incubating 5 μl of purified enzyme with 95 μL of sucrose solution at a final concentration of 584 mM in 0.1 M citrate/phosphate buffer (pH 6.0) at 30° C. Sugar profiles in the reaction mix were analysed at intervals by CE as described previously. One unit (U) of SI activity was defined as the amount of enzyme that could release 1 μmol of isomaltulose in one minute at the initial stage of the reaction.
(§3) SI activity was measured by incubating the purified enzyme with different sucrose concentrations (3, 6, 15, 58, 146, 292, 584, 877, 1169 and 1461 mM) under standard assay conditions, and also with addition of glucose, fructose or both to a final concentration of 277 mM. Data were analyzed according to the method of Lineweaver and Burk (Voet and Voet, 1995) to calculate Km and Vmax values.

[2] = molecular target: T2, Klebsiella sp. 14S sucrose isomerase (SI), carboxy-terminal 6×His tag (SEQ ID NO: 52) (Klebsiella planticola, UniProt Q6XKX6); assay: Sucrose isomerase kinetics, purified SI from Klebsiella sp. 14S (isomaltulose production), with or without glucose/fructose; assay type: biochemical; conditions: glucose vs fructose, 0.277 M, various sucrose concentrations
T2 sequence (Q6XKX6 29-598): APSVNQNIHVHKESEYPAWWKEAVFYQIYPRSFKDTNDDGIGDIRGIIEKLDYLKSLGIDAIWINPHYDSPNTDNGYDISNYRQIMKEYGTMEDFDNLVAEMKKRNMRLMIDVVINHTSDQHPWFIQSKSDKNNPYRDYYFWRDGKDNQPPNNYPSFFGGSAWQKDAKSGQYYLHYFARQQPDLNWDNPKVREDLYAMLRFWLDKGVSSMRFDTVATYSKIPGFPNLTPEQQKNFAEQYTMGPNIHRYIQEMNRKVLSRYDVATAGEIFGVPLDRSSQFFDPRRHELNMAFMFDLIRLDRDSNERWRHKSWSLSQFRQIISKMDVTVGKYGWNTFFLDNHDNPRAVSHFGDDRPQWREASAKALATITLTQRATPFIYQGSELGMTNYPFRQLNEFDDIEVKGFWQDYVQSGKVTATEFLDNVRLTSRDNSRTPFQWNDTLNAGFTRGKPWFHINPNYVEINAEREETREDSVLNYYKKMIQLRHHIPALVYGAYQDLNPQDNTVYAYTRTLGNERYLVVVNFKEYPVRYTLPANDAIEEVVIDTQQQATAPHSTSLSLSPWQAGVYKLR
Description: as §1, with “Unless otherwise specified, this is the form of the purified SI enzymes used for biochemical characterisation.” left out
Enzyme activities were measured by incubating 5 μl of purified enzyme with 95 μL of sucrose solution at a final concentration of 584 mM in 0.1 M citrate/phosphate buffer (pH 6.0) at 30° C. Sugar profiles in the reaction mix were analysed at intervals by CE as described previously. […]
as §3

[3] = tested on: E. rhapontici sucrose isomerase (SI); conditions: Nagai et al., 1994; Véronèse and Perlot, 1998; cited from earlier work
[4] = tested on: K. plymuthica sucrose isomerase (SI); conditions: Nagai et al., 1994; Véronèse and Perlot, 1998; cited from earlier work
[5] = tested on: P. rubrum sucrose isomerase (SI); conditions: Nagai et al., 1994; Véronèse and Perlot, 1998; cited from earlier work
[6] = tested on: P. mesoacidophila sucrose isomerase (SI); conditions: Nagai et al., 1994; Véronèse and Perlot, 1998; cited from earlier work
[7] = tested on: E. rhapontici WAC2928; assay: Growth in BP medium with different sugars; assay type: cell-based; conditions: 2% sugar added to BP medium, 18 h incubation at 30°C
Description: (§4) Isomaltulose production was tested using cells grown in LB and in a basal peptone medium (BP, comprising 1% BBL gelysate peptone and 0.5% NaCl, adjusted to pH 7.0 prior to autoclaving). Glucose, fructose, sucrose, lactose, maltose or isomaltulose was added to the cooled media, from a filter-sterilised stock. The media containing 4% (w/v) sucrose are referred to as SLB and SBP respectively.
(§5) Inoculum of 100 μL from a culture grown for 12 h in LB medium was added to 25 mL growth medium in a 250 mL flask. After 18 h at 30° C. on a shaker at 225 rpm, OD600 was used to measure growth. Cultures were diluted with growth medium to OD600=1.50 (approximately half the cell density of a saturated culture in SLB). Aliquots of 1 mL were harvested by centrifugation at 5000×g for 10 min and washed three times with 0.1 M citrate/phosphate buffer (pH 6.0). The cell pellets were resuspended in 0.4 mL of 0.1 M citrate/phosphate buffer (pH 6.0) containing 50% sucrose (w/v). Culture supernatant was filtered through a 0.2 μm filter (Pall Acrodisc), and 0.1 mL was mixed with 0.4 mL of 0.1 M citrate/phosphate buffer (pH 6.0) containing 50% sucrose (w/v), for parallel testing of culture filtrate and harvested cells in the SI assay.

[8] = tested on: P. dispersa 68J; assay: Growth in BP medium with different sugars; assay type: cell-based; conditions: 2% sugar added to BP medium, 18 h incubation at 30°C
Description: as §4, §5

[9] = tested on: purified SI from Klebsiella sp. 14S; assay: Inhibition of isomaltulose production by glucose and fructose; assay type: biochemical; conditions: 277 mM glucose or fructose
Description: as §3

[10] = tested on: purified SI from P. dispersa 68J; assay: as above; assay type: biochemical; conditions: 277 mM glucose or fructose
Description: as §3

[11] = Conversion of sucrose to isomaltulose in transgenic sugarcane callus expressing SI genes; assay type: cell-based; conditions: cell extracts of transgenic sugarcane callus; 3 of 3 68J lines, 3 of 7 14S lines
Description: The sucrose isomerase (SI) gene insert in the pET 24b vector was further cloned between the Ubi promoter from the maize ubi-l gene (Christensen and Quail, 1996, Transgen. Res. 5: 215-218) and the Agrobacterium nos terminator (Bevan et al., 1983, Nature 304: 183-187) to drive expression in sugarcane cells.
Plasmids with the sucrose isomerase genes (pU3ZErw, pU3Z14s or pU3Z68J) and the aph A construct plasmid pEmuKN (as a selectable marker) were isolated by alkaline extraction (Sambrook et al., 1989, supra), and dissolved in TE buffer. Plasmid intactness and absence of genomic DNA or RNA were checked by gel electrophoresis and concentration was measured by spectrophotometry. The sucrose isomerase (UbiSI) gene construct and selectable marker construct were co-precipitated onto tungsten microprojectiles and introduced into sugarcane callus, followed by selection for transformed callus, and regeneration of transgenic plants, essentially described by Bower et al. (1996, Molec. Breed. 2: 239-249).
Precipitation reactions were conducted by adding the following at 4° C. in turn to a 1.5 mL microfuge tube: 5 μL pEmuKN plasmid DNA (1 mg/mL), 5 μL UbiSI plasmid DNA (1 μg/μL), 50 μL tungsten (Bio-Rad M10, 100 μg/μL), 50 μL CaCl2 (2.5M), 20 μL spermidine (100 mM free base). […]

[12] = Assay of isolated (purified) SI enzyme activity; assay type: biochemical; conditions: purified fresh His-tagged enzymes
Description: as §1, §2
The enzymes were incubated with sucrose at different pH ranging from 2.0 to 10.6. The solution of pH 2.0 was buffered in 0.2 M KCl; pH 3.0 to pH 9.0 were in 0.1 M citrate/phosphate buffer; pH 10.0 to pH 10.6 were in 0.2 M glycine buffer. The effect of temperature from 10° C. to 70° C. was measured at pH 6.0. […]

[13] = Storage stability of purified SI proteins; assay type: physicochemical; conditions: elution buffer diluted with 50% glycerol
Description: The purified fresh enzymes from SDS-PAGE had specific activities for isomaltulose production of: E. rhapontici: 35 U mg^−1 protein, Klebsiella sp.: 95 U mg^−1 protein and P. dispersa: 632 U mg^−1 protein. The purified SI from E. rhapontici lost function during overnight storage at −20° C. in elution buffer diluted with 50% glycerol. In contrast, the purified enzymes from 14S or P. dispersa retained 100% of the fresh enzyme efficiency for isomaltulose production after 6-month storage at −20° C., or 60% after 15-day storage at room temperature in the same buffer. Because of instability, the E. rhapontici SI was not characterised further in purified form. Cheetham et al., (1984) found substantial differences between E. rhapontici strains for SI stability in immobilized cells, and the enzyme from strain NCPPB 1578 was stable in purified form (Cheetham, 1984).
as §1

## OC[C@H]1OC(O)[C@H](O)[C@@H](O)[C@@H]1O (some centres unmarked) [glucose]
[1]
  Relative inhibition: stronger inhibition than fructose
[2]
  Relative inhibition: stronger inhibition than fructose
[3]
  Inhibition of activity: inhibit activity
[4]
  Inhibition of activity: inhibit activity
[5]
  Inhibition of activity: inhibit activity
[6]
  Inhibition of activity: inhibit activity

## OC[C@H]1O[C@H](OC[C@H]2OC(O)(CO)[C@@H](O)[C@@H]2O)[C@H](O)[C@@H](O)[C@@H]1O (stereo partly drawn) [isomaltulose, α-D-glucopyranosyl-1,6-D-fructofuranose]
[7]
  effect on growth of E. rhapontici WAC2928: substantially enhanced growth
[8]
  effect on growth of P. dispersa 68J: little effect

## O=C(CO)[C@@H](O)[C@H](O)[C@H](O)CO [fructose]
[8]
  effect on growth of P. dispersa 68J: supported faster growth
[9]
  mode of inhibition of isomaltulose production: competitive inhibitors
[10]
  mode of inhibition of isomaltulose production: competitive inhibitors

B1: Erwinia rhapontici: sucrose isomerase cloned from Erwinia rhapontici WAC2928, SEQ ID NO: 2, mature polypeptide SEQ ID NO: 4 (protein, listed as Erwinia rhapontici)
chain: MSSQELKAAVAIFLATTFSATSYQACSAGPDTAPSLTVQQSNALPTWWKQAVFYQVYPRSFKDTNGDGIGDLNGIIENLDYLKKLGIDAIWINPHYDSPNTDNGYDIRDYRKIMKEYGTMEDFDRLISEMKKRNMRLMIDIVINHTSDQHAWFVQSKSGKNNPYRDYYFWRDGKDGHAPNNYPSFFGGSAWEKDDKSGQYYLHYFAKQQPDLNWDNPKVRQDLYDMLRFWLDKGVXGLRFDTVATYSKIPNFPDLSQQQLKNFAEEYTKGPKIHDYVNEMNREVLSHYDIATAGEIFGVPLDKSIKFFDRRRNELNIAFTFDLIRLDRDADERWRRKDWTLSQFRKIVDKVDQTAGEYGWNAFFLDNHDNPRAVSHFGDDRPQWREHAAKALATLTLTQRATPFIYQGSELGMTNYPFKKIDDFDDVEVKGFWQDYVETGKVKAEEFLTNVRQTSRDNSRTPFQWDASKNAGFTSGTPWLKINPNYKEINSADQINNPNSVFNYYRKLINIRHDIPALTYGSYIDLAPDNNSVYAYTRTFGAEKYLVVINFKEEVMHYTLPGDLSINKVITENNSHTIVNKNDVEDPRGATSVCSPFQAQKRPGDPGYSAAHSIRFLPRFFASYRGDIHAFK
modifications: not fully specified; sig_peptide (1)..(36); mat_peptide (37)..(632); MOD_RES (200)..(200) Any amino acid
[11]
  isomaltulose peak relative to sucrose peak on the CE electrograph: even lower isomaltulose levels than the 14S lines
[12]
  specific activity for isomaltulose production: 35 U mg^−1 protein
[13]
  function after overnight storage at −20° C.: lost function
